The values below come from patent publication US12358894B2 (priority 2019, dated 2025).

For the assay, the system named is pathogens of rice blast. The class given is cell-based. The following applies: test solution 2000 ppm, 1,000 μl on oatmeal culture medium, 4-mm rice blast disc, 25° C., 6 days; calculated from elongation length of hyphae with vs without treatment.

The structures appear in SMILES notation.

For the compound `COc1nc(-n2cccn2)nc(F)c1C(F)(F)F` [Example 1, 6-fluoro-4-methoxy-2-(1-pyrazolyl)-5-(trifluoromethyl)pyrimidine], the Preventive value is listed as 100.
